Reference: patent publication US10919884B2, “Amide compounds for treatment of immune and inflammatory disorders” (Achillion Pharmaceuticals, Inc., priority 2015, dated 2021)

target: Human Factor D (Homo sapiens (Human), UniProt P00746); assay: Human Factor D Assay; type: biochemical; details: Human Factor D purified from human serum, 80 nM; substrate Z-L-Lys-SBzl and DTNB 100 μM each; assay of Example 12
Protocol: Example 12. Human Factor D Assay
Human Factor D (purified from human serum, Complement Technology, Inc.) at 80 nM final concentration is incubated with test compound at various concentrations for 5 minutes at room temperature in 50 mM Tris, 1 M NaCl, pH 7.5. A synthetic substrate Z-L-Lys-SBzl and DTNB (Ellman's reagent) are added to final concentrations of 100 μM each. Absorbance at 405 nm (A405) is recorded at 30 second intervals for 30 minutes using a microplate spectrophotometer. IC50 values are calculated by nonlinear regression of complement Factor D reaction rates as a function of test compound concentration.
The assay of Example 12 was used to determine the IC50's of the compounds. Other standard Factor D inhibition assays are also available.

Chain of Human Factor D (P00746 26-253): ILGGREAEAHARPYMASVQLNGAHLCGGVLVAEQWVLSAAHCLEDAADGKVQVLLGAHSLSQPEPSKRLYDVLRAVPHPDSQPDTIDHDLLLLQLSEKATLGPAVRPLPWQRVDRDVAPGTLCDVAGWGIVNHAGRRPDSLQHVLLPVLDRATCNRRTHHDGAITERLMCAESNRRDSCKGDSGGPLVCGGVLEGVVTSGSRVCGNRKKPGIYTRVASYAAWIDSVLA

| SMILES | IC50 [µM] |
| --- | --- |
| Cc1cccc(NC(=O)[C@@H]2CC=CCN2C(=O)Cn2cc(C(N)=O)c3cc(NC(=O)N4CCCC(F)(F)C4)ccc32)n1 [Compound 1, (S)-5-(3,3-difluoropiperidine-1-carboxamido)-1-(2-(6-((6-methylpyridin-2-yl)carbamoyl)-5,6-dihydropyridin-1(2H)-yl)-2-oxoethyl)-1H-indole-3-carboxamide] | > 10 |
| Cc1cccc(C[C@@H](O)[C@H]2C[C@@H](F)CN2C(=O)Cn2cc(C(N)=O)c3cc(NC(=O)N4CCCC(F)(F)C4)ccc32)n1 [Compound 2, 5-(3,3-difluoropiperidine-1-carboxamido)-1-(2-((2R,4R)-4-fluoro-2-((R)-1-hydroxy-2-(6-methylpyridin-2-yl)ethyl)pyrrolidin-1-yl)-2-oxoethyl)-1H-indole-3-carboxamide] | > 10 |
| Cc1cccc(C[C@H](O)[C@@H]2C[C@@H](F)CN2C(=O)Cn2cc(C(N)=O)c3cc(NC(=O)N4CCCC(F)(F)C4)ccc32)n1 [Compound 3, 5-(3,3-difluoropiperidine-1-carboxamido)-1-(2-((2S,4R)-4-fluoro-2-((S)-1-hydroxy-2-(6-methylpyridin-2-yl)ethyl)pyrrolidin-1-yl)-2-oxoethyl)-1H-indole-3-carboxamide] | > 10 |
| Cc1cccc(NC(=O)[C@@H]2CCC(F)CCN2C(=O)Cn2cc(C(N)=O)c3cc(NC(=O)N4CCCC(F)(F)C4)ccc32)n1 (stereo partly drawn) [Compound 4, 5-(3,3-difluoropiperidine-1-carboxamido)-1-(2-((2S)-5-fluoro-2-((6-methylpyridin-2-yl)carbamoyl)azepan-1-yl)-2-oxoethyl)-1H-indole-3-carboxamide] | > 10 |
| Cc1cccc(NC(=O)[C@@H]2CC=CCN2C(=O)Cn2cc(C(N)=O)c3cc(C(=O)NS(=O)(=O)C4CC4)ccc32)n1 [Compound 5, (S)-N5-(cyclopropylsulfonyl)-1-(2-(6-((6-methylpyridin-2-yl)carbamoyl)-5,6-dihydropyridin-1(2H)-yl)-2-oxoethyl)-1H-indole-3,5-dicarboxamide] | > 10 |
